Data as given in patent US10836769B2, “Substituted pyrrolizine compounds and uses thereof” (Gilead Sciences, Inc., priority 2018, dated 2020).
In brackets after ≈: the same amount, converted by molar mass. Where two headings read alike, the source gives them in different places.

How the values were obtained:
[1] = Kinetic Solubility; type: physicochemical; details: 0.2 to 100 μM, BD Gentest Solubility Scanner
Description: The 10 mM DMSO stock solution of the test compound is serially diluted into a 96-well “DMSO stock dilution plate”. Then Pipette 2 μL from the DMSO stock dilution plate into the “Sample plate” and dilute with 198 µL of the assay media to generate the final concentrations of the test compound ranging from 0.2 to 100 μM. The “Sample plate” is run on a BD Gentest Solubility Scanner.

[2] = system: HBV; assay: HBV DNA Quantification Assay; type: cell-based
Description: A HepG2 cell line overexpressing the HBV virus attachment receptor sodium-taurocholate cotransporting polypeptide (NTCP) was grown to confluency in DMEM growth medium, Dulbecco's Modified Eagle Medium without sodium pyruvate (Life Technologies, Rockville, Md.) supplemented with 10% FBS (Thermo Scientific, Waltham, Md.), 1% penicillin/streptomycin (Life Technologies, Rockville, Md.) and 2 mM L-glutamine (Life Technologies, Rockville, Md.) in T175 flasks. Cells were infected with HBV AD38 viral particles (Texcell, Frederick, USA) at 4000 genome equivalents per cell. After allowing viral infection to take place for 4 days, the infected cells were harvested from the flasks by trypsinization, washed twice with OptiMEM (Life Technologies, Rockville, Md.) and re-suspended in DMEM containing 2% FBS and 1% DMSO at a density of 0.25E6 cells/ml. Infected cells were seeded on 384 well collagen coated plates (Greiner, Austria) at a density of 20,000 cells/well containing serially diluted compounds of the present disclosure or DMSO (0.5%) in a final volume of 80 μl. The assay plates were incubated for a period of 5 days and the antiviral activity of the test compounds were assayed by detecting the presence of HBV DNA in the culture supernatant using the QuantiGene™ 2.0 nucleic acid quantification kit (Affymetrix, Santa Clara, Calif.).
The culture supernatant was harvested and treated with lysis buffer containing Proteinase K (Affymetrix, Santa Clara, Calif.). The supernatant was incubated with HBV viral DNA specific probes (Affymetrix, Santa Clara, Calif.) for 30 minutes at 55° C. This was followed by addition of 0.2M NaOH for 30 minutes at room temperature to denature the DNA, followed by addition of Neutralization buffer (Affymetrix, Santa Clara, Calif.). The resulting lysed and neutralized supernatant was then added to QuantiGene™ 2.0 384 well plates coated with capture oligonucleotides and incubated overnight at 55° C. The HBV specific probe set consists of Capture Extender oligonucleotides (CE's) and blocking probes. Following the overnight incubation, the wells were incubated for one hour sequentially with a Pre-Amplifier, Amplifier and Labeled probes conjugated to alkaline phosphatase with a wash step between incubations. After the final wash step, the alkaline phosphatase substrate (Luminol APS5) was added and the resulting luminescence signal was read in an EnVision Multilabel Plate Reader (PerkinElmer, Santa Clara, Calif.). The EC50 values were calculated from the fit of the dose-response curves to a four-parameter equation. All EC50 values represent geometric mean values of a minimum of four determinations.

[3] = aqueous buffer, kinetic from dmso stock, pH = 7, read-out: Kinetic Solubility at pH = 7
[4] = simulated gastric fluid, kinetic from dmso stock, pH = 1, read-out: Kinetic Solubility at pH = 1
[5] = Hepatitis B virus, 120 h, HepG2 cell line overexpressing NTCP infected with HBV AD38 viral particles, HBV DNA in culture supernatant after 5 days, geometric mean of a minimum of four determinations, read-out: EC50
[6] = assay media at pH 1 (composition not named), simulated gastric fluid, kinetic from dmso stock, pH = 1, read-out: Kinetic Solubility at pH = 1
[7] = assay media at pH 7 (composition not named), aqueous buffer, kinetic from dmso stock, pH = 7, read-out: Kinetic Solubility at pH = 7
[8] = Hepatitis B virus, HepG2, 120 h

## Cc1c(C(=O)Nc2ccc(F)cc2)c2n(c1C(=O)C(=O)NC1(c3cnn(C)n3)CC(F)(F)C1)CCC2 [Example 9, 5-(2-((3,3-difluoro-14(2-methyl-2H-1,2,3-triazol-4-yl)cyclobutyl)amino)-2-oxoacetyl)-N-4(4-fluorophenyl)-6-methyl-2,3-dihydro-1H-pyrrolizine-7-carboxamide]
[1]; pH = 1, read-out: Kinetic Solubility at pH = 1
  solubility kinetic: 2.8 µM (≈ 1.4 µg/mL)
[1]; pH = 7, read-out: Kinetic Solubility at pH = 7
  solubility kinetic: 2.3 µM (≈ 1.15 µg/mL)
[2]; HepG2 cell line overexpressing NTCP infected with HBV AD38 viral particles, HBV DNA in culture supernatant after 5 days, geometric mean of a minimum of four determinations, read-out: EC50
  EC50: 5.8 nM

## Cc1c(C(=O)Nc2ccc(F)c(Cl)c2)c2n(c1C(=O)C(=O)NC1(c3cnn[nH]3)CC(F)(F)C1)CCC2 [Example 16, N-(3-chloro-4-fluorophenyl)-5-(2-((3,3-difluoro-1-(1H-1,2,3-triazol-4-yl)cyclobutyl)amino)-2-oxoacetyl)-6-methyl-2,3-dihydro-1H-pyrrolizine-7-carboxamide]
[1]; [3]
  solubility kinetic: 2.8 µM (≈ 1.46 µg/mL)
[1]; [4]
  solubility kinetic: 16.5 µM (≈ 8.59 µg/mL)
[2]; [5]
  EC50: 1.8 nM

## CNC(=O)C1(NC(=O)C(=O)c2c(C)c(C(=O)Nc3ccc(F)c(F)c3)c3n2[C@H]2C[C@H]2C3)CC(F)(F)C1 [Example 24]
[1]; [3]
  solubility kinetic: 87.1 µM (≈ 44.1 µg/mL)
[1]; [4]
  solubility kinetic: 99.4 µM (≈ 50.3 µg/mL)
[2]; [5]
  EC50: 177 nM

## Cc1c(C(=O)Nc2ccc(F)c(F)c2)c2n(c1C(=O)C(=O)NC1(c3c[nH]nn3)COC1)CCC2 [Example 36, 5-(2-((3-(1H-1,2,3-triazol-4-v)oxetan-3-yl)amino)-2-oxoacetyl)-N-(3,4-difluorophenyl)-6-methyl-2,3-dihydro-1H-pyrrolizine-7-carboxamide]
[1]; [6]
  solubility kinetic: 63 µM (≈ 29.6 µg/mL)
[1]; [7]
  solubility kinetic: 59.9 µM (≈ 28.2 µg/mL)
[2]; [8]
  EC50: 21.4 nM

## Cc1c(C(=O)Nc2ccc(F)c(F)c2)c2n(c1C(=O)C(=O)NC1(c3cnn[nH]3)CC(F)(F)C1)C[C@@H]1C[C@H]21 [Example 21]
[1]; [3]
  solubility kinetic: 57.6 µM (≈ 29.7 µg/mL)
[1]; [4]
  solubility kinetic: 64.7 µM (≈ 33.4 µg/mL)
[2]; [5]
  EC50: 3.9 nM

## Cc1c(C(=O)Nc2ccc(F)c(F)c2)c2n(c1C(=O)C(=O)NC1(c3cn(C)nn3)CC(F)(F)C1)CCC2 [Example 6, 5-(2-((3,3-difluoro-1-(1-methyl-1H-1,2,3-triazol-4-yl)cyclobutyl)amino)-2-oxoacetyl)-N-(3,4-difluorophenyl)-6-methyl-2,3-dihydro-1H-pyrrolizine-7-carboxamide]
[1]; [3]
  solubility kinetic: 44.8 µM (≈ 23.2 µg/mL)
[1]; [4]
  solubility kinetic: 46.1 µM (≈ 23.9 µg/mL)
[2]; [5]
  EC50: 14 nM

## Cc1c(C(=O)Nc2ccc(F)c(F)c2)c2n(c1C(=O)C(=O)NC1(c3cn(C)nn3)CC1)CCC2 [Example 11]
[1]; [6]
  solubility kinetic: 48.9 µM (≈ 22.9 µg/mL)
[1]; [7]
  solubility kinetic: 56.3 µM (≈ 26.4 µg/mL)
[2]; [8]
  EC50: 71.2 nM

## CNC(=O)C1(NC(=O)C(=O)c2c(C)c(C(=O)Nc3cc(F)c(F)c(F)c3)c3n2CCC3)CC(F)(F)C1 [Example 42, 5-(2-((3,3-difluoro-1-(methylcarbamoyl)cyclobutyl)amino)-2-oxoacetyl)-6-methyl-N-(3,4,5-trifluorophenyl)-2,3-dihydro-1H-pyrrolizine-7-carboxamide]
[1]; [3]
  solubility kinetic: 29.6 µM (≈ 15.2 µg/mL)
[1]; [4]
  solubility kinetic: 37.5 µM (≈ 19.2 µg/mL)
[2]; [5]
  EC50: 12.7 nM

## CNC(=O)C1(NC(=O)C(=O)c2c(C)c(C(=O)Nc3ccnc(C(F)F)c3F)c3n2CCC3)CC(F)(F)C1 [Example 20, 5-(2-((3,3-difluoro-1-(methylcarbamoyl)cyclobutyl)amino)-2-oxoacetyl)-N-(2-(difluoromethyl)-3-fluoropyridin-4-yl)-6-methyl-2,3-dihydro-1H-pyrrolizine-7-carboxamide]
[1]; [3]
  solubility kinetic: 28 µM (≈ 14.8 µg/mL)
[1]; [4]
  solubility kinetic: 26.3 µM (≈ 13.9 µg/mL)
[2]; [5]
  EC50: 503 nM

## Cc1c(C(=O)Nc2ccc(F)c(C#N)c2)c2n(c1C(=O)C(=O)NC1(c3nncs3)CC(F)(F)C1)CCC2 [Example 2]
[1]; [3]
  solubility kinetic: 7.4 µM (≈ 3.91 µg/mL)
[1]; [4]
  solubility kinetic: 7.8 µM (≈ 4.12 µg/mL)
[2]; [5]
  EC50: 4.8 nM

## Cc1c(C(=O)Nc2ccc(F)c(C(F)F)c2)c2n(c1C(=O)C(=O)NC1(c3nncs3)CC1)CCC2 [Example 31]
[1]; [3]
  solubility kinetic: 6.3 µM (≈ 3.17 µg/mL)
[1]; [4]
  solubility kinetic: 23.1 µM (≈ 11.6 µg/mL)
[2]; [5]
  EC50: 16.5 nM

## Cc1c(C(=O)Nc2cc(F)c(F)c(F)c2)c2n(c1C(=O)C(=O)NC1(c3cn(C)nn3)CC(F)(F)C1)CCC2 [Example 4]
[1]; [3]
  solubility kinetic: 39.9 µM (≈ 21.4 µg/mL)
[1]; [4]
  solubility kinetic: 43.3 µM (≈ 23.2 µg/mL)
[2]; [5]
  EC50: 7.5 nM

## CNC(=O)C1(NC(=O)C(=O)c2c(C)c(C(=O)Nc3ccc(F)c(F)c3)c3n2CCC3)CC(F)(F)C1 [Example 46]
[1]; [3]
  solubility kinetic: 88.5 µM (≈ 43.8 µg/mL)
[1]; [4]
  solubility kinetic: 84.4 µM (≈ 41.7 µg/mL)
[2]; [5]
  EC50: 22.5 nM

## CNC(=O)C1(NC(=O)C(=O)c2c(C)c(C(=O)Nc3ccc(F)c(F)c3)c3n2CCC3)COC1 [Example 38, N-(3,4-difluorophenyl)-6-methyl-5-(2-((3-(methylcarbamoyl)oxetan-3-yl)amino)-2-oxoacetyl)-2,3-dihydro-1H-pyrrolizine-7-carboxamide]
[1]; [3]
  solubility kinetic: 86.7 µM (≈ 39.9 µg/mL)
[1]; [4]
  solubility kinetic: 88.7 µM (≈ 40.8 µg/mL)
[2]; [5]
  EC50: 87.2 nM

## Cc1c(C(=O)Nc2ccc(F)cc2)c2n(c1C(=O)C(=O)NC1(c3nncs3)CC(F)(F)C1)CCC2 [Example 8]
[1]; [3]
  solubility kinetic: 3.9 µM (≈ 1.96 µg/mL)
[1]; [4]
  solubility kinetic: 10.5 µM (≈ 5.29 µg/mL)
[2]; [5]
  EC50: 4.7 nM

## Cc1c(C(=O)Nc2ccc(F)c(F)c2)c2n(c1C(=O)C(=O)NC1(c3c[nH]nn3)CC(F)(F)C1)CCC2 [Example 39]
[1]; [3]
  solubility kinetic: 66.8 µM (≈ 33.7 µg/mL)
[1]; [4]
  solubility kinetic: 66 µM (≈ 33.3 µg/mL)
[2]; [5]
  EC50: 2.9 nM

## Cc1c(C(=O)Nc2ccc(F)c(F)c2)c2n(c1C(=O)C(=O)NC1(CO)CC(F)(F)C1)CCC2 [Example 19, 5-(2-((3,3-difluoro-1-(hydroxymethyl)cyclobutyl)amino)-2-oxoacetyl)-N-(3,4-difluorophenyl)-6-methyl-2,3-dihydro-1H-pyrrolizine-7-carboxamide]
[1]; [3]
  solubility kinetic: 62 µM (≈ 29 µg/mL)
[1]; [4]
  solubility kinetic: 68.7 µM (≈ 32.1 µg/mL)
[2]; [5]
  EC50: 20.2 nM

## Cc1c(C(=O)Nc2ccc(F)c(F)c2)c2n(c1C(=O)C(=O)NC1(c3cnn[nH]3)CC(F)(F)C1)C[C@H]1C[C@@H]21 [Example 25, (1aS,6bR)-4-(2-((3,3-difluoro-1-(1H-1,2,3-triazol-5-yl)cyclobutyl)amino)-2-oxoacetyl)-N-(3,4-difluorophenyl)-5-methyl-1,1a,2,6b-tetrahydrocyclopropa[a]pyrrolizine-6-carboxamide]
[1]; [3]
  solubility kinetic: 65 µM (≈ 33.6 µg/mL)
[1]; [4]
  solubility kinetic: 72.6 µM (≈ 37.5 µg/mL)
[2]; [5]
  EC50: 1.9 nM

## C#CC1(NC(=O)C(=O)c2c(C)c(C(=O)Nc3ccc(F)c(F)c3)c3n2CCC3)CC1 [Example 13]
[1]; [6]
  solubility kinetic: 5 µM (≈ 2.06 µg/mL)
[1]; [7]
  solubility kinetic: 6.4 µM (≈ 2.63 µg/mL)
[2]; [8]
  EC50: 8.5 nM

## Cc1c(C(=O)Nc2ccc(F)c(F)c2)c2n(c1C(=O)C(=O)NC1(C(N)=O)CC(F)(F)C1)CCC2 [Example 44, 5-(2-((1-carbamoyl-3,3-difluorocyclobutyl)amino)-2-oxoacetyl)-N-(3,4-difluorophenyl)-6-methyl-2,3-dihydro-1H-pyrrolizine-7-carboxamide]
[1]; [3]
  solubility kinetic: 49.8 µM (≈ 23.9 µg/mL)
[1]; [4]
  solubility kinetic: 90.3 µM (≈ 43.4 µg/mL)
[2]; [5]
  EC50: 15.2 nM

## Cc1c(C(=O)Nc2ccc(F)cc2)c2n(c1C(=O)C(=O)NC1(c3nncs3)CC1)CCC2 [Example 30, 5-(2-((1-(1,3,4-thiadiazol-2-yl)cyclopropyl)amino)-2-oxoacetyl)-N-(4-fluorophenyl)-6-methyl-2,3-dihydro-1H-pyrrolizine-7-carboxamide]
[1]; [3]
  solubility kinetic: 13 µM (≈ 5.9 µg/mL)
[1]; [4]
  solubility kinetic: > 100 µM
[2]; [5]
  EC50: 30.6 nM

## Cc1c(C(=O)Nc2ccc(F)c(C#N)c2)c2n(c1C(=O)C(=O)NC1(c3cn(C)nn3)CC(F)(F)C1)CCC2 [Example 5, N-(3-cyano-4-fluorophenyl)-5-(2-((3,3-difluoro-1-(1-methyl-1H-1,2,3-triazol-4-yl)cyclobutyl)amino)-2-oxoacetyl)-6-methyl-2,3-dihydro-1H-pyrrolizine-7-carboxamide]
[1]; [3]
  solubility kinetic: 20.7 µM (≈ 10.9 µg/mL)
[1]; [4]
  solubility kinetic: 11.3 µM (≈ 5.94 µg/mL)
[2]; [5]
  EC50: 43.6 nM
